test: Tritiated Sulfonamide Binding to Membranes: isolated from cells that heterologously express hNav1.7 and the β1 subunit Preparation of membranes containing recombinantly expressed sodium channels: Frozen recombinant cell pellets were thawed on ice and diluted to 4 times the cell pellet weight with ice cold 50 mM Tris HCl, pH 7.4 buffer. The cell suspensions were homogenized on ice using a motorized glass dounce homogeniser. Homogenates were further diluted 8.4 times with ice cold 50 mM Tris HCl, pH 7.4 buffer and then centrifuged at 200×g at 4° C. for 15 min. The supernatants were collected and centrifuged at 10000×g at 4° C. for 50 min. The pellets were then re-suspended in 100 mM NaCl, 20 mM Tris HCl, pH 7.4 buffer containing 1% v/v protease inhibitors (Calbiochem) and re-homogenized on ice. The homogenized membranes were then processed through a syringe equipped with a 26 gauge needle. Protein concentrations were determined by Bradford Assay and the membranes were stored at −80° C.Radioligand Binding Studies:Saturation experiments. A representative compound of formula (I) having a methyl group was tritiated. Three tritiums were incorporated in place of methyl hydrogens to generate [3H]compound. Binding of this radioligand was preformed in 5 mL borosilicate glass test tubes at room temperature. Binding was initiated by adding membranes to increasing concentrations of [3H]compound in 100 mM NaCl, 20 mM Tris HCl, pH 7.4 buffer containing 0.01% w/v bovine serum albumin (BSA) for 18 h. Non-specific binding was determined in the presence of 1 μM unlabelled compound. After 18 h, the reactants were filtered through GF/C glass fiber filters presoaked in 0.5% w/v polyethylene imine. Filters were washed with 15 mL ice cold 100 mM NaCl, 20 mM Tris HCl, pH7.4 buffer containing 0.25% BSA to separate bound from free ligand. [3H]compound bound to filters was quantified by liquid scintillation counting.Competitive Binding Experiments:Binding reactions were preformed in 96-well polypropylene plates at room temperature for 18 h. In 360 μL, membranes were incubated with 100 pM [3H]compound and increasing concentrations of Test Compound. Non-specific binding was defined in the presence of 1 μM unlabelled compound. Reactions were transferred and filtered through 96-well glass fiber/C filter plates presoaked with 0.5% polyethylene imine. The filtered reactions were washed 5 times with 200 μL ice cold buffer containing 0.25% BSA. Bound radioactivity was determined by liquid scintillation counting.Data Analysis: For saturation experiments, non-specific binding was subtracted from total binding to provide specific binding and these values were recalculated in terms of pmol ligand bound per mg protein. Saturation curves were constructed and dissociation constants were calculated using the single site ligand binding model: Beq=(Bmax*X)/(X+Kd), where Beq is the amount of ligand bound at equilibrium, Bmax is the maximum receptor density, Kd is the dissociation constant for the ligand, and X is the free ligand concentration. For competition studies percent inhibition was determined and IC50 values were calculated using a 4 parameter logistic model (% inhibition=(A+((B−A)/(1+((x/C)^D)))) using XLfit, where A and B are the maximal and minimum inhibition respectively, C is the IC50 concentration and D is the (Hill) slope.

Row | IC50 [nM] | Structure (SMILES)
1 | 19.8 | COc1ncccc1-c1cc(C(=O)NS(=N)(=O)C2CC2)c(F)cc1Oc1cnc(OC(C)C)c(Cl)c1 (centres undefined)
2 | 18.1 | CC(C)Oc1ncc(Oc2cc(F)c(C(=O)NS(=N)(=O)C3CC3)cc2Cl)cc1Cl (centres undefined)
3 | 14.2 | N=S(=O)(NC(=O)c1cc(C2CC2)c(COc2cc(F)cc(C(F)(F)F)c2)cc1F)C1CC1 (centres undefined)
4 | 182 | N=S(=O)(NC(=O)c1cc(C2CC2)c(OCC2(F)CCN(Cc3cc(C(F)(F)F)cc(Cl)c3F)CC2)cc1F)C1CC1 (centres undefined)
5 | 23.6 | N=S(=O)(NC(=O)c1cc(Cl)c(Oc2cnc(OCC(F)(F)F)c(Cl)c2)cc1F)C1CC1 (centres undefined)
6 | 23.8 | N=S(=O)(NC(=O)c1cc(Cl)c(Oc2cnc(OCC(F)(F)C(F)F)c(Cl)c2)cc1F)C1CC1 (centres undefined)
7 | 2290 | N=S(=O)(NC(=O)c1cc(C2CC2)c(O[C@@H]2CCCN(Cc3c(Cl)cccc3Cl)C2)cc1F)C1CC1 (some centres undefined)
8 | 210 | COc1cc(C(=O)NS(=N)(=O)C2CC2)c(F)cc1OCC12CC3CC(CC(C3)C1)C2 (centres undefined)
9 | 80.9 | N=S(=O)(NC(=O)c1cc(C2CC2)c(OCC23CC4CC(CC(C4)C2)C3)cc1F)N1CCC1 (centres undefined)
10 | 159 | N=S(=O)(NC(=O)c1cc(Cl)c(Oc2cnc(OCC(F)(F)C(F)F)c(Cl)c2)cc1F)N1CCC1 (centres undefined)
11 | 616 | C[C@@H](c1cc(Cl)cc(Cl)c1)N1CCC(COc2ccc(C(=O)NS(=N)(=O)C3CC3)cc2C2CC2)CC1 (some centres undefined)
12 | 92.5 | C[C@@H](c1cc(Cl)cc(Cl)c1)N1CCC(COc2cc(F)c(C(=O)NS(=N)(=O)C3CC3)cc2C2CC2)CC1 (some centres undefined)
13 | 8.67 | N=S(=O)(NC(=O)c1cc(C2CC2)c(COc2cc(Cl)cc(OC(F)(F)F)c2)cc1F)C1CC1 (centres undefined)
14 | 238 | N=S(=O)(NC(=O)c1cc(F)c(Oc2ccc(OC(F)(F)F)c(Cl)c2)cc1F)C1CC1 (centres undefined)

— ChEMBL document CHEMBL5727951, “Substituted benzamides and methods of use thereof” (2020)
